Assay [1] concerns Imatinib-resistant ABL mutants. The conditions noted are these: literature; cited from earlier work.
Assay [2] concerns the target T1, Wild-type ABL 0P (unphosphorylated ABL kinase domain) (Homo sapiens, UniProt P00519).
T1 sequence (P00519 229-512): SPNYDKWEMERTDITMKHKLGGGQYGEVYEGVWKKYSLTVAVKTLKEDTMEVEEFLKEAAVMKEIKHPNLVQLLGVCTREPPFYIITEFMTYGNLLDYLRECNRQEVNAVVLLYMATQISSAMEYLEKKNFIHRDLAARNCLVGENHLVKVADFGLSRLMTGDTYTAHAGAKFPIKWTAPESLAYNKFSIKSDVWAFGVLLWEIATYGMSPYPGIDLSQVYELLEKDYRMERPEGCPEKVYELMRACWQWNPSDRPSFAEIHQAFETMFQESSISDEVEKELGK
The following applies: Table 1; displacement of probe 3.1 at 0.15 μM, 10 nM enzyme, average of three experiments.
Experimental: (§1) In all experiments, the fluorescence signal was measured using a Fusion α-FP HT plate reader (Packard). Data analysis was performed using the Dynafit software.
(§2) In particular, titration data were fitted to the following equilibria: Enzyme+probe<==>Complex Enzyme-probe, while displacement data were fitted to the following equilibria: Enzyme+probe<==>Complex Enzyme-probe, Enzyme+Compound<==>Complex Enzyme-Compound, whereby binding of probe and compound on the enzyme are mutually exclusive (pure competitive mechanism).
(§3) The mixture of enzyme and probe was added to the previously diluted compounds. […] In agreement, affinity binding constants (KD) were determined by fitting with a pure competitive mechanism. KD values, are the average of three independent experiments.
(§4) The displacement assay was performed as described before, with 3 μM as the highest inhibitor concentration tested with dilution steps 1:1.5.

In assay [3] the target is T2, Wild-type ABL kinase domain (Homo sapiens, UniProt P00519).
T2 sequence (P00519 229-512): T1 sequence (P00519 229-512)
The conditions noted are these: Table 1; displacement of probe 3.1 at 0.12 μM, 10 nM enzyme, average of three experiments.
Experimental: as §1, §2, §3, §4

Assay [4] has as its target T3, T315I ABL mutant kinase domain (Homo sapiens, UniProt P00519, T315I).
T3 sequence (P00519 229-512 T315I): T1 sequence (P00519 229-512) with T87I
The following applies: Table 1; displacement of probe 3.1 at 0.42 μM, 10 nM enzyme, average of three experiments.

In assay [5] the target is T1, Wild-type ABL 0P (unphosphorylated ABL kinase domain). The following applies: Table 4; displacement of probe 3.2 at 2 μM.
Experimental: as §2, §3
(§5) The applied conditions were the same except for the saturating probe concentration (2, 3.3 and 0.2 μM for ABL wild-type unphosphorylated (0P), wild-type and T315I, respectively) and the probe final concentration (2, 3.3 and 0.2 μM for ABL wild-type unphosphorylated (0P), wild-type and T315I, respectively).
(§6) The displacement assay was performed as described before, with 3 μM as the highest inhibitor concentration tested.
The target of assay [6] is T2, Wild-type ABL kinase domain. The following applies: Table 4; displacement of probe 3.2 at 3.3 μM.
Experimental: as §2, §3, §5, §6
The target in assay [7] is T3, T315I ABL mutant kinase domain. The conditions noted are these: Table 4; displacement of probe 3.2 at 0.2 μM.

Positions count from the first letter of the chain named. Where two headings read alike, the source gives them in different places.

On to `Cc1cn(-c2cc(NC(=O)c3ccc(C)c(Nc4nccc(-c5cccnc5)n4)c3)cc(C(F)(F)F)c2)cn1` [AMN107], for which the “activity against Imatinib-resistant ABL mutants” value in assay [1] is “active against the majority”.
Turning to `Nc1ncnc2c1ncn2[C@@H]1O[C@H](COP(=O)(O)OP(=O)(O)OP(O)(O)=S)[C@@H](O)[C@H]1O` [ATPγS], the Kd in assay [2] was 9.5 ± 3.4 µM; in assay [3], 9 ± 1.9 µM; in assay [4] it was 2 ± 0.21 µM; in assay [5] it was 6.6 ± 1.6 µM; in assay [6], 4.8 ± 1 µM; in assay [7] it was 2.61 ± 0.9 µM.

By Kd is commonly meant the free concentration of one partner at which half of the binding sites on the other are occupied at equilibrium, for simple one-to-one binding. High values mean lower affinity, low ones higher affinity.

The values above are taken from patent publication US8084455B2, “Use of a kinase inhibitor for the treatment of particular resistant tumors” (Nerviano Medical Sciences S.r.l., priority 2006, dated 2011).
